Numbers after ± are expanded uncertainties.
Assay: xn = mol fraction of the nth substance listed
Conditions: 100 kPa, Liquid; for speed of sound: Pulse-echo method; for mass density: Vibrating tube method

CNc1ccccc1 [N-methylaniline] + CCCCCCC
Conditions	mass density [kg/m3]	speed of sound [m/s]
293.15 K, x1 = 0.054	695.999 ± 0.25	1164.1 ± 1.4
293.15 K, x1 = 0.1084	708.778 ± 0.26	1177.2 ± 1.4
293.15 K, x1 = 0.1536	719.814 ± 0.27	1188.4 ± 1.4
293.15 K, x1 = 0.2	731.341 ± 0.27	1200 ± 1.5
293.15 K, x1 = 0.2556	745.704 ± 0.28	1214.5 ± 1.5
293.15 K, x1 = 0.2976	756.81 ± 0.29	1226.1 ± 1.6
293.15 K, x1 = 0.3473	770.261 ± 0.3	1240.6 ± 1.6
293.15 K, x1 = 0.3944	783.41 ± 0.32	1255.2 ± 1.6
293.15 K, x1 = 0.4485	798.879 ± 0.34	1273.5 ± 1.7
293.15 K, x1 = 0.4953	812.615 ± 0.36	1291 ± 1.8
293.15 K, x1 = 0.5355	824.725 ± 0.38	1306.9 ± 1.8
293.15 K, x1 = 0.599	844.458 ± 0.41	1335 ± 1.9
293.15 K, x1 = 0.6436	858.711 ± 0.44	1356.6 ± 1.9
293.15 K, x1 = 0.7024	878.07 ± 0.49	1387.7 ± 2
293.15 K, x1 = 0.7457	892.769 ± 0.53	1412.5 ± 2
293.15 K, x1 = 0.7858	906.675 ± 0.56	1436.7 ± 2.1
293.15 K, x1 = 0.8459	928.153 ± 0.63	1474.7 ± 2.2
293.15 K, x1 = 0.8952	946.22 ± 0.69	1507.9 ± 2.2
293.15 K, x1 = 0.9491	966.608 ± 0.76	1545.5 ± 2.3
298.15 K, x1 = 0.0577	692.58 ± 0.25	1143.9 ± 1.4
298.15 K, x1 = 0.1072	704.27 ± 0.26	1156.2 ± 1.4
298.15 K, x1 = 0.1473	713.999 ± 0.26	1166.3 ± 1.4
298.15 K, x1 = 0.2055	728.558 ± 0.27	1181.4 ± 1.5
298.15 K, x1 = 0.2595	742.491 ± 0.28	1193.9 ± 1.5
298.15 K, x1 = 0.3033	754.107 ± 0.29	1208.3 ± 1.6
298.15 K, x1 = 0.3401	764.024 ± 0.3	1219.2 ± 1.6
298.15 K, x1 = 0.3955	779.471 ± 0.32	1236.7 ± 1.6
298.15 K, x1 = 0.4559	796.765 ± 0.34	1257.6 ± 1.7
298.15 K, x1 = 0.503	810.692 ± 0.36	1275.5 ± 1.8
298.15 K, x1 = 0.5431	822.843 ± 0.38	1291.9 ± 1.8
298.15 K, x1 = 0.5956	839.178 ± 0.41	1315.3 ± 1.9
298.15 K, x1 = 0.6441	854.671 ± 0.44	1338.8 ± 1.9
298.15 K, x1 = 0.6995	872.931 ± 0.48	1368.1 ± 2
298.15 K, x1 = 0.7491	889.715 ± 0.52	1396.2 ± 2
298.15 K, x1 = 0.7964	906.279 ± 0.57	1425.1 ± 2.1
298.15 K, x1 = 0.8446	923.55 ± 0.62	1455.9 ± 2.2
298.15 K, x1 = 0.8949	942.036 ± 0.68	1489.6 ± 2.2
298.15 K, x1 = 0.9465	961.528 ± 0.75	1525.6 ± 2.3
303.15 K, x1 = 0.0615	689.386 ± 0.25	1124.9 ± 1.4
303.15 K, x1 = 0.1111	701.082 ± 0.25	1137.5 ± 1.4
303.15 K, x1 = 0.1548	711.723 ± 0.26	1148.8 ± 1.4
303.15 K, x1 = 0.2069	724.76 ± 0.27	1162.6 ± 1.5
303.15 K, x1 = 0.2501	735.88 ± 0.28	1174.4 ± 1.5
303.15 K, x1 = 0.2964	748.035 ± 0.28	1187.5 ± 1.5
303.15 K, x1 = 0.348	762.057 ± 0.3	1203.2 ± 1.6
303.15 K, x1 = 0.3979	775.964 ± 0.31	1219.2 ± 1.6
303.15 K, x1 = 0.4513	791.356 ± 0.33	1238 ± 1.7
303.15 K, x1 = 0.5003	805.793 ± 0.35	1256.5 ± 1.8
303.15 K, x1 = 0.5583	823.48 ± 0.38	1280.8 ± 1.8
303.15 K, x1 = 0.5988	836.196 ± 0.4	1299.2 ± 1.9
303.15 K, x1 = 0.647	851.618 ± 0.43	1322.6 ± 1.9
303.15 K, x1 = 0.7026	869.963 ± 0.48	1351.9 ± 2
303.15 K, x1 = 0.7475	885.221 ± 0.52	1377.4 ± 2
303.15 K, x1 = 0.7954	901.919 ± 0.56	1406.3 ± 2.1
303.15 K, x1 = 0.8446	919.525 ± 0.62	1437.5 ± 2.2
303.15 K, x1 = 0.8917	936.846 ± 0.67	1468.8 ± 2.2
303.15 K, x1 = 0.9404	955.244 ± 0.74	1502.4 ± 2.3

Source: the NIST ThermoML archive (doi:10.1021/je400134d)
